The source of these data is patent US20250351832A1, “PHYTOCHEMICALS AS BIOPESTICIDES AND BIOSTIMULANTS” (KAY BEE BIO ORGANICS PVT. LTD., priority 2024, published 2025).

For one series, the system named is Tomato thrips. Description: In vitro bio-efficacy, Tomato thrips (Ex. 57).
Series [1] deals with Potato Bacterial Blight (BLB) (Ralstonia solanacearum). Type of series: in vivo. As to conditions: dose 500 PPM.
The test system of series [2] is Rice Bacterial Blight (BLB) (Xanthomonas oryzae pv. Oryzae). The class given is in vivo. As to conditions: dose 500 PPM.
Series [3] has as its system Cotton Bacterial Leaf Blight (Xanthomonas citri pv. Malvacearum). As to the kind of experiment: Field trial, cotton bacterial leaf blight (Ex. 96). As to conditions: dose 500 PPM.
A further series deals with Alternaria alternata. As to the kind of experiment: In vitro poisoned food technique against fungus (Ex. 20). The class given is cell-based. As to conditions: […].
In a further series the test system is tomato seedlings. Description: Response of tomato plants, greenhouse growth (Ex. 30). Type of series: in vivo.
For another series, the system named is chili seedlings. Description: Response of chili plants, greenhouse growth (Ex. 31). Type of series: in vivo.
Series [4] concerns Aphid.
Series [5] has as its system Mite. As to conditions: Dose 1 ml/gm/lit.; 48 hrs.
Series [6] deals with Helicoverpa armigera. As to conditions: Helicoverpa armigera on okra fruits, dose 1 ml/gm/lit., 72 Hrs.
Series [7] relates to Spodoptera litura. As to conditions: 72 h, 1 mL or g/L.
Series [8] relates to Thrips. The conditions noted are these: 48 h, 1 mL or g/L.
Series [9] has as its system Aphid. The conditions noted are these: 48 h, 1 mL or g/L.
Series [10] has as its system Mite. The conditions noted are these: mite on okra plants, green house; dose 1 ml/gm/lit. spray; 48 hrs after application.
Series [11] relates to Helicoverpa armigera. As to conditions: Helicoverpa armigera 3rd instar on chickpea plants, dose 1 ml/gm/lit. spray.
In series [12] the test system is Spodoptera litura. The conditions noted are these: Spodoptera litura 3rd instar on cabbage plants; dose 1 ml/gm/lit. spray; 72 hrs after application.
Series [13] deals with Thrips. As to conditions: 48 h.
For series [14] the following is noted: cited from earlier work.
Series [15] concerns Spodoptera litura. Description: whole plant or invertebrate. The conditions noted are these: 72 h.
The subject of series [16] is Thrips. As to the kind of experiment: whole plant or invertebrate. As to conditions: in Gossypium hirsutum, 48 h.
Series [17] has as its system Aphid. Description: whole plant or invertebrate. As to conditions: 48 h.
In series [18] the test system is Mealy Bug. As to the kind of experiment: In vitro bio-efficacy against mealy bug (Ex. 16). The conditions noted are these: in vivo.
Series [19] deals with Mite. As to the kind of experiment: Green house effect on mite, okra plants (Ex. 23). As to conditions: in vivo.
Series [20] has as its system Thrips. As to the kind of experiment: Greenhouse effect on thrips, cotton plants (Ex. 27). As to conditions: in vivo.
The test system of series [21] is Mealy Bug. As to the kind of experiment: Green house effect on mealy bugs, cotton plants (Ex. 24). The conditions noted are these: in vivo.
The subject of series [22] is Spodoptera litura. As to the kind of experiment: Controlled conditions, Spodoptera litura on cabbage plants (Ex. 26). As to conditions: in vivo.
[23] abbreviates: tomato seedlings, 10th day, dose 1 ml/gm/lit.
[24] abbreviates: chili seedlings, dose 1 ml/gm/lit, 10th day.
Where [25] appears, read: Table 13, descriptive, no test described.
Where [26] appears, read: read-out: % Corrected Mortality at 48 Hrs.
Setting [27] is: read-out: % Mortality at 48 Hrs.

Like-named read-outs stand apart in the source and are kept apart here.

As for `CN(C(=O)c1ccccc1)c1cccc(C(=O)Nc2c(Br)cc(C(F)(C(F)(F)F)C(F)(F)F)cc2C(F)(F)F)c1F` [Brofranilide], in the series with Tomato thrips (Dose 0.17 ml/lit), the “% Corrected Mortality at 72 hrs.” value is recorded as 47.37%, the “% Mortality at 72 hrs.” value is on record as 50.0% and the “Total no of dead insects at 72 hrs.” value turned out to be 20.0.
Turning to `O=[N+]([O-])C(Br)(CO)CO` [Bromopol], in series [1], the “% Disease Infection after 1st spray” value is reported as 24.49%, the “% Disease Infection after 2nd spray” value is 21.79%, the “% Disease Reduction Over Control after 1st spray” value is 53.59% and the “% Disease Reduction Over Control after 2nd spray” value is recorded as 71.13%. In addition, in [1] (potato), the “% Increase in yield over control” value came out at 7.64% and the Yield was found to be 22.24 t/ha. Also, in [2], the “% Disease Infection after 1st spray” value worked out at 22.18%, the “% Disease Infection after 2nd spray” value was 19.63%, the “% Disease Reduction Over Control after 1st spray” value is listed as 61.71% and the “% Disease Reduction Over Control after 2nd spray” value was found to be 74.02%. In [2] (rice), the “% Increase in yield over control” value was 8.31% and the Yield is 4.09 t/ha. Moreover, in series [3] (cotton), the “% Increase in yield over control” value is on record as 7.93% and the Yield turned out to be 24.96 qtl/ha. In addition, in [3], the “% Disease Infection after 1st spray” value amounted to 30.65%, the “% Disease Infection after 2nd spray” value was 12.86%, the “% Disease Reduction Over Control after 1st spray” value is 47.43% and the “% Disease Reduction Over Control after 2nd spray” value was found to be 81.68%.
The compound `C=C(C)[C@H]1CC=C(C)CC1` [D-limonene] displayed an inhibition of growth at 1 mL or g/L in the series on Alternaria alternata of 46.6%. Further, the “CCI Pre” value in the series with tomato seedlings was 11.59; in the series with chili seedlings, 10.30. Moreover, the “Plant Height Pre” value in the series on tomato seedlings is 5.52 cm. The “Stem Girth Pre” value with tomato seedlings is listed as 1.30 mm. Also, the entries for the “CCI 5th Day” value with tomato seedlings (120 h) and with chili seedlings (120 h) were 13.66 and 13.60, respectively. Besides, the “Plant Height 5th Day” value in the series on tomato seedlings (120 h) was 6.44 cm. Also, the “Stem Girth 5th Day” value in the series on tomato seedlings (120 h) is 1.98 mm. The “CCI 10th Day” value in the series with tomato seedlings (240 h) was 15.54; in the series on chili seedlings (240 h), 17.4. Besides, the “Plant Height 10th Day” value with tomato seedlings (240 h) turned out to be 7.56 cm. Besides, in the series with tomato seedlings (240 h), the “Root Length % Increase over control” value worked out at 25.57%. The “Stem Girth 10th Day” value in the series on tomato seedlings (240 h) amounted to 2.21 mm. Also, the “Plant Height % Increase over pre on 10th Day” value in the series on tomato seedlings (setting [23]) turned out to be 36.96%; in the series on chili seedlings (setting [24]) it was 68.16%. Also, the “Stem Girth % Increase over pre on 10th Day” value was 69.48% in the series with tomato seedlings (setting [23]) and 60.00% in the series with chili seedlings (setting [24]). Besides, the “CCI % Increase over pre on 10th Day” value is 34.08% with tomato seedlings (tomato seedlings, dose 1 ml/gm/lit, 10th day) and 68.93% with chili seedlings (setting [24]). In addition, the “Plant Height (cm) Pre” value in the series on chili seedlings came to 4.90 cm. The “Plant Height (cm) 5th Day” value in the series with chili seedlings (120 h) amounted to 6.97 cm. Also, the “Plant Height (cm) 10th Day” value with chili seedlings (240 h) was 8.24 cm. In the series with chili seedlings (240 h), the “Root Lenght % Increase over control” value is given as 61.51%. The “Root Lenght (cm) 10th Day” value with chili seedlings (setting [24]) was 4.42 cm. Moreover, the “Total No. of dead insect at 48 Hrs.” value with Aphid [4] (48 h) is listed as 6.25; with Thrips [8], 3.75; in the series on Aphid [9], 62.50; in the series on Thrips [13], 37.50. Further, the “% Corrected Mortality at 48 Hrs.” value in the series with Aphid [4] (Dose 1 ml/gm/lit., 48 hrs) is given as 57.14%; in the series on Mite [5] it was 45.95%; with Mealy Bug [18], 39.47%; in the series on Mite [19], 50.00%; in the series on Thrips [20], 30.56%; in the series with Mealy Bug [21], 38.89%. Further, the “% Mortality at 48 Hrs.” value in the series on Mite [5] amounted to 50.00%; in the series with Mite [10], 52.50%; in the series with Mealy Bug [18], 42.50%; in the series on Mealy Bug [21] it was 45.00%. The “% Mortality at 72 Hrs.” value in the series with Helicoverpa armigera [6] was 32.50%; in the series on Helicoverpa armigera [11] (72 hrs after application) it was 32.50%; with Spodoptera litura [12], 27.50%. In addition, the “% Corrected Mortality at 72 Hrs.” value amounted to 32.50% in the series with Helicoverpa armigera [6] (corrected for water control); 32.50% in the series with Helicoverpa armigera [11] (72 hrs, corrected for water control); 23.68% with Spodoptera litura [22]. Besides, the “Total No. of dead insect at 72 Hrs.” value with Spodoptera litura [7] is reported as 2.50. In addition, the “Acaricidal Activity - Mode of action” value in series [14] (setting [25]) is “Ovicidal, repellent activity”. The “Antioxidant Activity - Mode of action” value in series [14] (setting [25]) is given as “Possesses antioxidant”. In addition, in series [14] (setting [25]), the “Virucidal Activity - Mode of action” value is given as “Exhibits viricidal activities”. Further, the “Phytotonic Effect” value in series [14] (Table 13, effect on plants, descriptive) was “Exhibits plant”. For the same compound, the mortality at 1 mL or g/L with Spodoptera litura [15] (read-out: % Corrected Mortality at 72 Hrs.) was 21.1%; with Spodoptera litura [15] (read-out: % Mortality at 72 Hrs.), 25%; in the series on Thrips [16] (setting [26]), 28.6%; with Thrips [16] (setting [27]), 37.5%; with Aphid [17] (setting [26]), 55.9%; with Aphid [17] (setting [27]) it was 62.5%.
For `CON=CNC(=O)c1ccc(C2=NOC(c3cc(Cl)cc(Cl)c3)(C(F)(F)F)C2)cc1C` (centres unmarked) [Fluxametamide], in the series on Tomato thrips (Dose 0.8 ml/lit), the “% Corrected Mortality at 72 hrs.” value came out at 57.89%, the “% Mortality at 72 hrs.” value is on record as 60.0% and the “Total no of dead insects at 72 hrs.” value worked out at 24.0.
